The source of these data is US8394789B2, “(Dihydro)pyrrolo[2,1-α]isoquinolines” (MSD Oss B.V., priority 2008, dated 2013).

In the assay the target is T1, human FSH receptor (Homo sapiens, UniProt P23945).
T1 construct: expressed in transfected cells
T1 sequence (P23945 18-695): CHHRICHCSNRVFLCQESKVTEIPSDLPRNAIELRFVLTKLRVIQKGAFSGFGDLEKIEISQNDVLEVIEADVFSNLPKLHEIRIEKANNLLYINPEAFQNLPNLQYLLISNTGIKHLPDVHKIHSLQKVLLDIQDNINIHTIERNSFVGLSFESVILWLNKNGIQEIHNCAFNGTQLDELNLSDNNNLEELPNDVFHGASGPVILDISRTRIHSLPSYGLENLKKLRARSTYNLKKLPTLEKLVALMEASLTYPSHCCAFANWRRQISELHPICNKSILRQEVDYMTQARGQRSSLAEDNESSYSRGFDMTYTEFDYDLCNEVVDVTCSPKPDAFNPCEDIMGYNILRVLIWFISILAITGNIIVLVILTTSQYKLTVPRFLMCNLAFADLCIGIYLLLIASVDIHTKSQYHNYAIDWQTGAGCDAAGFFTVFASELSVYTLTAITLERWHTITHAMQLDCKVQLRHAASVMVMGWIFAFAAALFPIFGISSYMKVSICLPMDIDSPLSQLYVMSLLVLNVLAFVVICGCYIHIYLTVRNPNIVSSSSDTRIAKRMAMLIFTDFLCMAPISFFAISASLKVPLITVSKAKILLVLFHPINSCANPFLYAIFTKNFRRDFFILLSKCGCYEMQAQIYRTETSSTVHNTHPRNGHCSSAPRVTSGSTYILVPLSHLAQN
The experiment in a line: hFSHRago (CHO luc): agonistic activity at the human FSH receptor expressed in CHO cells, CRE-luciferase reporter. Particulars: CHO cells stably transfected with human FSH receptor and CRE/luciferase reporter; 4 hours of incubation. In kind it is cell-based.
`COc1cc2c(cc1OCCN(C)C)-c1c(-c3cccs3)cc(C(=O)N(C)C(C)(C)C)n1CC2` [Example 73, 9-(2-Dimethylamino-ethoxy)-8-methoxy-1-thiophen-2-yl-5,6-dihydro-pyrrolo[2,1-α]isoquinoline-3-carboxylic acid tert-butyl-methyl-amide; trifluoro acetic acid] registered an EC50 of 118 nM.
As for `COc1cc2c(cc1OC(C)C)-c1c(-c3cccs3)cc(C(=O)N3CC4CC(CN(C(=O)CSC)C4)C3)n1CC2` [Example 21, 1-[7-(9-Isopropoxy-8-methoxy-1-thiophen-2-yl-5,6-dihydro-pyrrolo[2,1-α]isoquinoline-3-carbonyl)-3,7-diaza-bicyclo[3.3.1]non-3-yl]-2-methylsulfanyl-ethanone], a half-maximal effect (EC50) was put at 77.8 nM.
The molecule `COc1cc2ccn3c(C(=O)N(C)C(C)(C)C)cc(-c4cccs4)c3c2cc1OCCO` [Example 36, 9-(2-Hydroxy-ethoxy)-8-methoxy-1-thiophen-2-yl-pyrrolo[2,1-α]isoquinoline-3-carboxylic acid tert-butyl-methyl-amide] returned an EC50 of 2.5 nM.
Molecule `COc1cc2c(cc1NC(=O)CN(C)C)-c1c(-c3cccs3)cc(C(=O)N(C)C(C)(C)C)n1CC2` [Example 96, 9-(2-Dimethylamino-acetylamino)-8-methoxy-1-thiophen-2-yl-5,6,6 a,10a-tetrahydro-pyrrolo[2,1-α]isoquinoline-3-carboxylic acid tert-butyl-methyl-amide] gave a 50% effective concentration (EC50) of 2.8 nM.
Regarding `COc1cc2c(cc1OC(C)C)-c1c(-c3cccs3)cc(C(=O)N3CCCC3c3cccnc3)n1CC2` (stereo not drawn) [Example 29, (9-Isopropoxy-8-methoxy-1-thiophen-2-yl-5,6-dihydro-pyrrolo[2,1-α]isoquinolin-3-yl)-(2-pyridin-3-yl-pyrrolidin-1-yl)-methanone], the midpoint of the response, the EC50, lay at 624 nM.
`COc1cc2c(cc1CO)-c1c(-c3cccs3)cc(C(=O)N(C)C(C)(C)C)n1CC2` [Example 121a, 9-Hydroxymethyl-8-methoxy-1-thiophen-2-yl-5,6-dihydro-pyrrolo[2,1-α]isoquinoline-3-carboxylic acid tert-butyl-methyl-amide] came in with an EC50 of 10 nM.
On to `COc1cc2c(cc1OCCC(C)C)-c1c(-c3cccs3)cc(C(=O)N3CCCN(C(C)=O)CC3)n1CC2` [Example 80, 1-{4-[8-Methoxy-9-(3-methyl-butoxy)-1-thiophen-2-yl-5,6-dihydro-pyrrolo[2,1-α]isoquinoline-3-carbonyl]-perhydro-1,4-diazepin-1-yl}-ethanone], for which the EC50 came out at 101 nM.
Consider `CCOC(=O)COc1cc2c(cc1OC)CCn1c(C(=O)N(C)C(C)(C)C)cc(-c3cccs3)c1-2` [Example 63, [3-(tert-Butyl-methyl-carbamoyl)-8-methoxy-1-thiophen-2-yl-5,6-dihydro-pyrrolo[2,1-α]isoquinolin-9-yloxy]-acetic acid ethyl ester], for which the midpoint of the response, the EC50, lay at 252 nM.
With `COc1cc2c(cc1OCCNC(C)=O)-c1c(-c3cccs3)cc(C(=O)N(C)C(C)(C)C)n1CC2` [Example 67, 9-(2-Acetylamino-ethoxy)-8-methoxy-1-thiophen-2-yl-5,6-dihydro-pyrrolo[2,1-α]isoquinoline-3-carboxylic acid tert-butyl-methyl-amide], the EC50 came out at 36.5 nM.
`COc1cc2c(cc1OC(C)C)-c1c(-c3cccs3)cc(C(=O)N(C)N(C)C)n1CC2` [Example 31, 9-Isopropoxy-8-methoxy-1-thiophen-2-yl-5,6-dihydro-pyrrolo[2,1-α]isoquinoline-3-carboxylic acid trimethylhydrazide] returned an EC50 of 241 nM.
In turn, `COc1cc2c(cc1OCCNS(C)(=O)=O)-c1c(-c3cccs3)cc(C(=O)N(C)C(C)(C)C)n1CC2` [Example 68, 9-(2-Methanesulfonylamino-ethoxy)-8-methoxy-1-thiophen-2-yl-5,6-dihydro-pyrrolo[2,1-α]isoquinoline-3-carboxylic acid tert-butyl-methyl-amide] yielded a concentration for a half-maximal effect (EC50) of 16 nM.
The same measure for `COc1cc2c(cc1OC(C)C)-c1c(-c3cccs3)cc(C(=O)N3CCCN(C(=O)C(O)C(F)(F)F)CC3)n1CC2` (stereo not drawn) [Example 4, 3,3,3-Trifluoro-2-hydroxy-1-[4-(9-isopropoxy-8-methoxy-1-thiophen-2-yl-5,6-dihydro-pyrrolo[2,1-α]isoquinoline-3-carbonyl)-[1,4]diazepan-1-yl]-propan-1-one]: 1.3 nM; for `COc1cc2c(cc1OC(C)C)-c1c(-c3cccs3)cc(C(=O)N3CC4CC(CN(C(C)=O)C4)C3)n1CC2` [Example 20, 1-[7-(9-isopopoxy-8-methoxy-1-thiophen-2-yl-5,6-dihydro-pyrrolo[2,1-α]isoquinoline-3-carbonyl)-3,7-diaza-bicyclo[3.3.1]non-3-yl]-ethanone]: 8.2 nM; for `COc1cc2c(c(OC)c1)-c1c(-c3ccsc3)cc(C(=O)N(C)C(C)(C)C)n1CC2` [Example 120, 8,10-Dimethoxy-1-thiophen-3-yl-5,6-dihydro-pyrrolo[2,1-α]isoquinoline-3-carboxylic acid tert-butyl-methyl-amide]: 699 nM.
For `CN(C(=O)c1cc(-c2cccs2)c2n1CCc1ccc(NS(=O)(=O)N(C)C)cc1-2)C(C)(C)C` [Example 103, 9-Dimethylaminosulfonylamino-1-thiophen-2-yl-5,6-dihydro-pyrrolo[2,1-α]isoquinoline-3-carboxylic acid tert-butyl-methyl-amide], the EC50 was 756 nM.
As to `COc1cc2c(cc1N1CCOCC1)-c1c(-c3cccnc3)cc(C(=O)N(C)C(C)(C)C)n1CC2` [Example 57, 8-Methoxy-9-morpholin-4-yl-1-pyridin-3-yl-5,6-dihydro-pyrrolo[2,1-α]isoquinoline-3-carboxylic acid tert-butyl-methyl-amide; trifluoro acetic acid], the response was half-maximal at 276 nM (EC50).
`COc1cc2c(cc1OC(C)C)-c1c(-c3cccs3)cc(C(=O)N3CC4CC(C3)CN(C(=O)C3CCC3)C4)n1CC2` [Example 22, (7-Cyclobutanecarbonyl-3,7-diaza-bicyclo[3.3.1]non-3-yl)-(9-isopropoxy-8-methoxy-1-thiophen-2-yl-5,6-dihydro-pyrrolo[2,1-α]isoquinolin-3-yl)-methanone] returned a concentration giving a half-maximal response (EC50) of 8.9 nM.
As for `COc1cc2c(cc1OC(C)C)-c1c(-c3cccs3)c(Cl)c(C(=O)N3CCCN(C(C)=O)CC3)n1CC2` [Example 12b, 1-[4-(2-Chloro-9-isopropoxy-8-methoxy-1-thiophen-2-yl-5,6-dihydro-pyrrolo[2,1-α]isoquinoline-3-carbonyl)-[1,4]diazepan-1-yl]-ethanone], the EC50 turned out to be 1.9 nM.
Regarding `COc1cc2c(cc1OCCO)-c1c(-c3cccs3)cc(C(=O)N(C)C(C)(C)C)n1CC2` [Example 65d, 9-(2-Hydroxy-ethoxy)-8-methoxy-1-thiophen-2-yl-5,6-dihydro-pyrrolo[2,1-α]iso-quinoline-3-carboxylic acid tert-butyl-methyl-amide], the midpoint of the response, the EC50, lay at 1.3 nM.
`COc1cc2c(cc1OCCCN)-c1c(-c3cccs3)cc(C(=O)N(C)C(C)(C)C)n1CC2` [Example 70g, 9-(3-Amino-propoxy)-8-methoxy-1-thiophen-2-yl-5,6-dihydro-pyrrolo[2,1-α]iso-quinoline-3-carboxylic acid tert-butyl-methyl-amide] yielded an EC50 of 111 nM.
For the molecule `COc1cc2c(cc1OC(C)C)-c1c(-c3cccs3)cc(C(=O)N3CCCN(S(=O)(=O)c4ccc(C)cc4)CCC3)n1CC2` [Example 17, (9-Isopropoxy-8-methoxy-1-thiophen-2-yl-5,6-dihydro-pyrrolo[2,1-α]isoquinolin-3-yl)-[5-(toluene-4-sulfonyl)-perhydro-1,5-diazocin-1-yl]-methanone], the EC50 stood at 914 nM.
As for `COc1cc2c(cc1OC(C)C)-c1c(-c3cccs3)cc(C(=O)C(C)N(C)C)n1CC2` (stereo not drawn) [Example 47, 2-Dimethylamino-1-(9-isopropoxy-8-methoxy-1-thiophen-2-yl-5,6-dihydro-pyrrolo[2,1-α]isoquinolin-3-yl)-propan-1-one], the EC50 turned out to be 149 nM.
The molecule `COc1cc2c(cc1OC)-c1c(C3=CCCCC3)cc(C(=O)N(C)C(C)(C)C)n1CC2` [Example 110, 1-Cyclohex-1-enyl-8,9-dimethoxy-5,6-dihydro-pyrrolo[2,1-α]isoquinoline-3-carboxylic acid tert-butyl-methyl-amide] registered a concentration for a half-maximal effect (EC50) of 76.5 nM.
To `COc1cc2c(cc1N1CCOCC1)-c1c(-c3cccs3)cc(C(=O)N(C)C(C)(C)C)n1CC2` [Example 56, 8-Methoxy-9-morpholin-4-yl-1-thiophen-2-yl-5,6-dihydro-pyrrolo[2,1-α]isoquinoline-3-carboxylic acid tert-butyl-methyl-amide] belongs 15.7 nM; to `COc1cc2c(cc1OC)-c1c(-c3cccs3)cc(C(=O)N3CCCN(C(=O)C4(C)CCC4)CC3)n1CC2` [Example 104, (8,9-Dimethoxy-1-thiophen-2-yl-5,6-dihydro-pyrrolo[2,1-α]isoquinolin-3-yl)-[4-(1-methyl-cyclobutanecarbonyl)-[1,4]diazepan-1-yl]-methanone], 3 nM.
